Reference: US11452730B2, “Applications of desogestrel in the preparation of breast cancer ER-negative Ah receptor-positive products” (SHANGHAI JIAO TONG UNIVERSITY, priority 2015, dated 2022)
Like-named read-outs stand apart in the source and are kept apart here.

Key:
Type in all cases: cell-based
LoVo colon cancer cells = test: CellTiter-Glo luminescent cell viability assay, LoVo 96-well drug screening plate; settings: Homo sapiens, 72 hours
Protocol: (§1) In example 1, CELLTITER-GLO was used to test desogestrel for colon cancer RKO cells, LoVo cells, and MDA-MB-468 ductal breast cancer cells were handled as described above, and RKO 96-well cell culture plates, 96-well LoVo cell culture plates, and 96-well MDA-MB-468 cell culture plates were obtained, respectively. The complete medium for LoVo cells was MEM (a live product), Cat #10370021, with a cells/well density of 8000. a) DMSO was used to dilute the analyte desogestrel to 20 mM for use. b) 79 μL of the 20 mM analyte prepared in step a) was added to the first well in the first row of the dilution plate, and then 54 μL of DMSO solution was added to the second through ninth wells of the first row. 25 μL of solution was aspirated from the first to the second well, and after mixing well 25 μL of solution was aspirated from the second to the third well, and this was repeated until the 9th well in order to ensure that 3.16 dilution of the medication would be carried out one-by-one. b) 95 μl of cell-specific complete medium was added to the working plate, each medication to 9 wells. […] The final concentrations (μM) of the analyte drug in wells 2-10 in FIG. 1 are, in order: 100, 31.64557, 10.01442, 3.16912, 1.002886, 0.317369, 0.100433, 0.031783, 0.010058; a) Before testing, the RKO 96-well drug screening plate and the LoVo 96-well drug screen plate described in 3 above were stabilized to room temperature for 20-30 minutes. c) 100 μl of CellTiter-Glo reagent (prepared as described in 1 above) was added to all drug screening plates and mixed evenly. d) It was thoroughly oscillated in a 96-well microplate oscillator for 2 minutes to allow the cells to undergo full lysis. e) It was stored away from light at room temperature for 15 minutes before carrying out luminescent signal detection to ensure signal stability. f) An EnSpire multi-function plate reader was used at 570 nm to read the luminescent signals.

[1] = system: BT-474 ductal breast cancer cells; test: CellTiter-Glo luminescent cell viability assay, BT-474 cells (same method); settings: Homo sapiens, Table 1
From the text: Ductal breast cancer cells BT-474, complete medium basis of RPMI-1640 (a live product), Cat #A1049101, with a cells/well density of 4,000. The same method was used to test desogestrel's action on the IC50 value of BT-474 ductal breast cancer cells; results are shown in Table 1.

RKO colon cancer cells = test: CellTiter-Glo luminescent cell viability assay, RKO 96-well drug screening plate; settings: 72 hours
Protocol: as §1, with “for RKO” for “for LoVo”, “was DMEM” for “was MEM”, “Cat #11995081,” for “Cat #10370021,”, “of 12000.” for “of 8000.”

[2] = system: ER-negative Ah receptor-positive MDA-MB-468 breast cancer cells; test: CellTiter-Glo luminescent cell viability assay, MDA-MB-468 96-well drug screening plate; settings: Homo sapiens, 72 hours
Protocol: as §1, with “RKO” for “In example 1, CELLTITER-GLO was used to test desogestrel for colon cancer RKO”, “for ER-negative Ah receptor-positive MDA-MB-468 breast cancer” for “for LoVo”, “was Leibovitz's L-15” for “was MEM”, “Cat #11415064,” for “Cat #10370021,”, “of 12000.” for “of 8000.”, “0.010058;” for “0.010058; a) Before testing, the RKO 96-well drug screening plate and the LoVo 96-well drug screen plate described in 3 above were stabilized to room temperature for 20-30 minutes.”

- EC50 (LoVo colon cancer cells; FIG. 3, colon cancer, LoVo 96-well drug screening plate): 26.3 µM
- IC50 (LoVo colon cancer cells; FIG. 3, colon cancer, LoVo 96-well drug screening plate, read-out: IC50): 26.2 µM
- IC50 (LoVo colon cancer cells; LoVo cells, Table 1, read-out: IC50 value): 32.1 µM
- IC50 [1]: ≥ 100 µM
- EC50 (RKO colon cancer cells; FIG. 2, colon cancer, RKO 96-well drug screening plate): 136 µM
- IC50 (RKO colon cancer cells; FIG. 2, colon cancer, RKO 96-well drug screening plate, read-out: IC50): 32.1 µM
- IC50 (RKO colon cancer cells; Homo sapiens, RKO cells, Table 1, read-out: IC50 value): 26.2 µM
- EC50 ([2]; FIG. 4, ER-negative Ah receptor-positive breast cancer, MDA-MB-468 plate): 11.3 µM
- IC50 ([2]; FIG. 4, ER-negative Ah receptor-positive breast cancer, MDA-MB-468 plate, read-out: IC50): 12.5 µM
- IC50 ([2]; MDA-MB-468 cells, Table 1, read-out: IC50 value): 12.5 µM
SMILES: C#C[C@]1(O)CC[C@H]2[C@@H]3CCC4=CCCC[C@@H]4[C@H]3C(=C)C[C@@]21CC [desogestrel]
